Laboratory results: article PMC12486440, “Design, synthesis, and in silico studies of new benzofuran–pyrazole hybrids as multi-kinase inhibitors with potential antiproliferative activity” (RSC Advances, 2025)

Columns and labels:
HL-60(TB) = conditions: single dose 10 μM; leukemia
[1] = system: NCI 60 cancer cell line panel; assay: NCI 60 full panel summary; conditions: single dose 10 μM; mean over the NCI 60 panel
CCRF-CEM = conditions: single dose 10 μM; leukemia
K-562 = conditions: single dose 10 μM; leukemia
MOLT-4 = conditions: single dose 10 μM; leukemia
RPMI-8226 = conditions: single dose 10 μM; leukemia
SR = conditions: single dose 10 μM; leukemia
EKVX = conditions: single dose 10 μM; non-small lung carcinoma
HOP-62 = conditions: single dose 10 μM; non-small lung carcinoma
HOP-92 = conditions: single dose 10 μM; non-small lung carcinoma
NCI-H226 = conditions: single dose 10 μM; non-small lung carcinoma
NCI-H522 = conditions: single dose 10 μM; non-small lung carcinoma
HCT-15 = conditions: single dose 10 μM; colon cancer
SF-295 = conditions: single dose 10 μM; CNS cancer
SF-539 = conditions: single dose 10 μM; CNS cancer
SNB-19 = conditions: single dose 10 μM; CNS cancer
SNB-75 = conditions: single dose 10 μM; CNS cancer
MALME-3M = conditions: single dose 10 μM; melanoma
M14 = conditions: single dose 10 μM; melanoma
UACC-62 = conditions: single dose 10 μM; melanoma
OVCAR-8 = conditions: single dose 10 μM; ovarian carcinoma
SK-OV-3 = conditions: single dose 10 μM; ovarian carcinoma
A498 = conditions: single dose 10 μM; renal carcinoma
ACHN = conditions: single dose 10 μM; renal carcinoma
CAKI-1 = conditions: single dose 10 μM; renal carcinoma
TK-10 = conditions: single dose 10 μM; renal carcinoma
UO-31 = conditions: single dose 10 μM; renal carcinoma
PC-3 = conditions: single dose 10 μM; prostate carcinoma
MCF7 = conditions: single dose 10 μM; breast carcinoma
BT-549 = conditions: single dose 10 μM; breast carcinoma
T-47D = conditions: single dose 10 μM; breast carcinoma
MDA-MB-468 = conditions: single dose 10 μM; breast carcinoma
A549/ATCC = conditions: single dose 10 μM; non-small lung carcinoma
NCI-H23 = conditions: single dose 10 μM; non-small lung carcinoma
KM12 = conditions: single dose 10 μM; colon cancer
SW-620 = conditions: single dose 10 μM; colon cancer
SF-268 = conditions: single dose 10 μM; CNS cancer
LOX IMVI = conditions: single dose 10 μM; melanoma
SK-MEL-2 = conditions: single dose 10 μM; melanoma
SK-MEL-5 = conditions: single dose 10 μM; melanoma
UACC-257 = conditions: single dose 10 μM; melanoma
OVCAR-5 = conditions: single dose 10 μM; ovarian carcinoma
786–0 = conditions: single dose 10 μM; renal carcinoma
SN12C = conditions: single dose 10 μM; renal carcinoma
DU-145 = conditions: single dose 10 μM; prostate carcinoma

| SMILES | GI% (HL-60(TB)) [%] | Mean GI% [1] [%] | GI% (CCRF-CEM) [%] | GI% (K-562) [%] | GI% (MOLT-4) [%] | GI% (RPMI-8226) [%] | GI% (SR) [%] | GI% (EKVX) [%] | GI% (HOP-62) [%] | GI% (NCI-H226) [%] | GI% (NCI-H522) [%] | GI% (HCT-15) [%] | GI% (SF-295) [%] | GI% (SF-539) [%] | GI% (SNB-19) [%] | GI% (SNB-75) [%] | GI% (MALME-3M) [%] | GI% (SK-OV-3) [%] | GI% (A498) [%] | GI% (CAKI-1) [%] | other results |
| --- | --- | --- | --- | --- | --- | --- | --- | --- | --- | --- | --- | --- | --- | --- | --- | --- | --- | --- | --- | --- | --- |
| COc1ccc(C2=NNC(c3cn(-c4ccccc4)nc3-c3cc4ccccc4o3)C2)cc1 (centres unmarked) [3b, 3-(Benzofuran-2-yl)-4-(3-(4-methoxyphenyl)-4,5-dihydro-1H-pyrazol-5-yl)-1-phenyl-1H-pyrazole] | 2.83 | 0.8 | 17.25 | 7.50 | 8.04 | 7.55 | 7.24 | 0.52 | 4.32 | 1.48 | 0.82 | 1.12 | 1.43 | 4.09 | 2.46 | 0.28 | 4.88 | 6.45 | 2.47 | 17.83 | GI% (HOP-92): 3.27%; GI% (M14): 4.94%; GI% (UACC-62): 8.16%; GI% (OVCAR-8): 1.00%; GI% (ACHN): 5.79%; GI% (TK-10): 3.17%; GI% (UO-31): 26.14%; GI% (PC-3): 12.08%; GI% (MCF7): 2.03%; GI% (BT-549): 4.37%; GI% (T-47D): 2.60%; GI% (MDA-MB-468): 7.03% |
| COc1ccc(C2=NN(C(C)=O)C(c3cn(-c4ccccc4)nc3-c3cc4ccccc4o3)C2)cc1OC (centres unmarked) [4c, 1-(5-(3-(Benzofuran-2-yl)-1-phenyl-1H-pyrazol-4-yl)-3-(3,4-dimethoxyphenyl)-4,5-dihydropyrazol-1-yl)ethanone] | 12.17 | 2.51 | 9.93 | 7.80 | 8.51 | 11.35 | 16.71 | 2.78 | 3.35 | 1.68 | 1.54 | 2.45 | 4.33 | 1.95 | 6.15 | 14.70 | 3.54 | 7.21 | 3.05 | 13.64 | GI% (A549/ATCC): 2.60%; GI% (NCI-H23): 3.23%; GI% (KM12): 1.20%; GI% (SW-620): 4.67%; GI% (SF-268): 4.67%; GI% (LOX IMVI): 3.27%; GI% (SK-MEL-2): 1.30%; GI% (SK-MEL-5): 5.22%; GI% (UACC-257): 6.12%; GI% (OVCAR-5): 5.34%; GI% (786–0): 4.42%; GI% (SN12C): 10.86%; GI% (UO-31): 11.00%; GI% (PC-3): 3.89%; GI% (DU-145): 1.59%; GI% (MCF7): 8.83%; GI% (BT-549): 3.97%; GI% (T-47D): 5.68%; GI% (MDA-MB-468): 8.49% |
